{"source": "paper PMC4907692", "about": "“Engineering vanilloid-sensitivity into the rat TRPV2 channel” (eLife, 2016)", "key": {"[1]": {"target": "T1, N-terminus His-tagged TRPV1 (without GFP) (Rattus norvegicus, UniProt O35433)", "T1 construct": "expressed in transfected cells; host or cells: Saccharomyces cerevisiae (intact cells)", "assay": "3H-RTx binding to intact S. cerevisiae cells expressing His-tagged TRPV1", "details": "37°C, Figure 1F", "method": "To evaluate whether these constructs were competent to bind vanilloids, we initially measured the binding of [^3H]-RTx ([Szallasi and Blumberg, 1999]; [Szallasi et al., 1999]) to intact yeast cells expressing each of the constructs.\nS. cerevisiae cells overexpressing TRPV1 constructs to be used in ligand binding assays on intact cells (Figure 1E,F) were grown as for small scale expression trials. 24 hr after protein induction cells were spun down at 4000g, the supernatant was removed and the pellet resuspended in 1x PBS, normalizing OD600 to 75 for each sample, and aliquoted for storage at -80°C. ^3H-RTx binding assays on cells were performed at 37°C as previously described ([Feng et al., 2015]), but where non-specific binding of RTx was measured using cells expressing GFP alone. The binding of RTx to TRPV1 and TRPV2 in membranes (e.g. Figure 2A,B and 5C) was performed at 37°C unless otherwise stated using membranes prepared from large scale protein preparations of S. cerevisiae containing rat TRPV1 and TRPV2 with a 1D4 tag expressed using a constitutive promoter as in [Moiseenkova-Bell et al., 2008]. Data for binding of RTx to membranes was corrected for non-specific binding, determined using either excess non-radioactive ligand or heat inactivation of the protein, as previously described ([Feng et al., 2015]). […]"}, "[2]": {"target": "T2, TRPV1 S512F/T550L (Rattus norvegicus, UniProt O35433, S512F/T550L)", "T2 construct": "expressed in transfected cells; host or cells: Xenopus oocytes (cRNA injection)", "T2 sequence (O35433 whole entry S512F/T550L)": "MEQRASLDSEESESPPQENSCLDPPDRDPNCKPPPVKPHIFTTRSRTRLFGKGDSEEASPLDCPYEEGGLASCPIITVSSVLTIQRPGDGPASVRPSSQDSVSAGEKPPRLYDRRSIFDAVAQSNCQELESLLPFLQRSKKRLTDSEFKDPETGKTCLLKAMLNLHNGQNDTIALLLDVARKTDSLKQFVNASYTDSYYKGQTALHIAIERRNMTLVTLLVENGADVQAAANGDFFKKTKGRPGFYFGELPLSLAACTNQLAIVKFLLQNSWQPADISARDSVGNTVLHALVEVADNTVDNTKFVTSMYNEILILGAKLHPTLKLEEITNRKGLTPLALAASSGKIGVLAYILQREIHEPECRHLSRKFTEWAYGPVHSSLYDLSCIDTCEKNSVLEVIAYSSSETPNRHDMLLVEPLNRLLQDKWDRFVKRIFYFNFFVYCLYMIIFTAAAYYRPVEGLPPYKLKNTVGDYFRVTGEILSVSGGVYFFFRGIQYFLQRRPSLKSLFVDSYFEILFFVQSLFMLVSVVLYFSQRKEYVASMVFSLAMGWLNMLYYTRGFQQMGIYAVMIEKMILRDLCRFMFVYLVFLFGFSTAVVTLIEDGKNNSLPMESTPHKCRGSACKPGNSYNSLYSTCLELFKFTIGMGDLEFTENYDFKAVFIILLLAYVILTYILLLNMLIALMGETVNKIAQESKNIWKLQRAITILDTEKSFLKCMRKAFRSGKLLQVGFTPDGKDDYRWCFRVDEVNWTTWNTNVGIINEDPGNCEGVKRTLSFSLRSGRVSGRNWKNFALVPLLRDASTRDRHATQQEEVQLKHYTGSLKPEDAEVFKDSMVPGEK", "assay": "Two-electrode voltage-clamp in Xenopus oocytes, TRPV1 S512F/T550L", "type": "cell-based", "details": "100 nM RTx", "excerpt": "(§1) To further investigate the putative vanilloid binding pocket in TRPV1, we inspected the cryo-EM structure of TRPV1, looking for residues that are located nearby to the putative RTx density (Figure 1B; regions/residues highlighted in yellow) and that differ between TRPV1 and TRPV2 channels (Figure 3—figure supplement 1; regions highlighted in magenta). […] To quantify the contribution of each of these residues to TRPV1 channel activation by RTx under our experimental conditions, we mutated each to the corresponding residue in TRPV2. We then expressed each construct in oocytes and used the two electrode voltage-clamp technique to study activation by RTx and by the non-specific TRPV channel activator 2-APB. We recorded time courses for channel activation by each agonist while stepping the membrane potential from −60 to +60 mV every 3 s from a holding potential of 0 mV using an external recording solution containing 100 mM KCl (internal K^+ concentration in a healthy oocyte is 100 mM) (Figure 3A, left). We also recorded current-voltage (I-V) relations by stepping over a wider range of voltages in the absence and presence of activators, or in the presence of ruthenium red (RR), a non-specific inhibitor of TRP channels (Figure 3A, right). […]"}, "[3]": {"target": "T3, TRPV1 S512F/E570Q (Rattus norvegicus, UniProt O35433, E570Q/S512F)", "T3 construct": "expressed in transfected cells; host or cells: Xenopus oocytes (cRNA injection)", "T3 sequence (O35433 whole entry S512F/E570Q)": "as the sequence (O35433 whole entry S512F/T550L) above, with L550T, E570Q counted along it", "assay": "Two-electrode voltage-clamp in Xenopus oocytes, TRPV1 S512F/E570Q", "type": "cell-based", "details": "100 nM RTx", "excerpt": "as §1"}, "[4]": {"target": "T4, TRPV2 triple mutant that retained F472 (Rattus norvegicus, UniProt Q9WUD2, L507M/L510T/Q530E)", "T4 construct": "expressed in transfected cells; host or cells: Xenopus oocytes (cRNA injection)", "T4 sequence (Q9WUD2 whole entry L507M/L510T/Q530E)": "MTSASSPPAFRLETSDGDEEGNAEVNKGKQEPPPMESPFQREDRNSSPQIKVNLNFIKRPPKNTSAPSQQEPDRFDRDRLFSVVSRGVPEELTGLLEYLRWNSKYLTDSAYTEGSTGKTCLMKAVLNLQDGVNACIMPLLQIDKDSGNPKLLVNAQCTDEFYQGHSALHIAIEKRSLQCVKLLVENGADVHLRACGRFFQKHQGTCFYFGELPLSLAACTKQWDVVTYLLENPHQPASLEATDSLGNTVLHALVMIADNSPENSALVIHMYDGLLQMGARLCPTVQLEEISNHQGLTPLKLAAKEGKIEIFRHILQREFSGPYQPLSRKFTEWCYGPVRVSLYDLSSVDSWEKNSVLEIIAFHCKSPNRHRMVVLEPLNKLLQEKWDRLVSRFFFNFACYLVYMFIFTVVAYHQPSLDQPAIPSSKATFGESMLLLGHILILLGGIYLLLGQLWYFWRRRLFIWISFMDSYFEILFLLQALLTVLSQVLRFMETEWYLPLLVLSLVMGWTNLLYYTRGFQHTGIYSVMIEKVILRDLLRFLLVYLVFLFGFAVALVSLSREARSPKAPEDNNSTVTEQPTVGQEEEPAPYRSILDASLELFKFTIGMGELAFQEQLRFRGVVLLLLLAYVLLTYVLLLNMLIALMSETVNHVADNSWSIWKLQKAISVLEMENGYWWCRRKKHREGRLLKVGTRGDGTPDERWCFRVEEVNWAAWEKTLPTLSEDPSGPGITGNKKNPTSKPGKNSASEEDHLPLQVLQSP", "assay": "Two-electrode voltage-clamp in Xenopus oocytes, TRPV2 triple mutant retaining F472", "type": "cell-based", "details": "100 nM RTx, +60 mV, normalized to 4 mM 2-APB", "excerpt": "as §1"}}, "data": [{"smiles": "C=C(C)[C@]12C[C@@H](C)[C@@]34O[C@](Cc5ccccc5)(O[C@@H]1[C@@H]3C=C(COC(=O)Cc1ccc(O)c(OC)c1)C[C@]1(O)C(=O)C(C)=C[C@@H]41)O2", "note": "[RTx, resiniferatoxin]", "values": [{"measurement": "Hill slope (nH)", "setting": "[1]", "result": 0.6}, {"measurement": "Kd", "setting": "[1]; read-out: Kd of 3H-RTx binding (Hill fit)", "result": 30, "unit": "nM"}, {"measurement": "channel activation by RTx", "setting": "[2]", "result": "lost sensitivity"}, {"measurement": "channel activation by RTx", "setting": "[3]", "result": "retained RTx sensitivity"}, {"measurement": "channel activation by RTx", "setting": "[4]", "result": "insensitive to RTx"}]}]}
